Test results: patent US7148014B2, “Methods of inhibiting phagocytosis” (University of Pennsylvania, priority 1993, dated 2006)

Key:
[1] = test system: FcγRIIA mediated phagocytosis in monocytes; test: Phagocytosis of IgG-sensitized RBCs (EA) by cultured monocytes treated with ODN-liposome complexes; assay type: cell-based, human; settings: for phagocytic index (PI): untreated PI 220±8.8
Method: Monocytes (1×10^5 cells/ml) were incubated with complexes of 4 μg/ml of LIPOFECTAMINE and ODNs (1.0 μM each of the linear control or the linear Syk antisense ODNs, or 0.2 μM each of the stem-loop control or the stem-loop Syk antisense ODN) for 2 days, and the phagocytosis of IgG-sensitized red blood cells (EA) was examined. Phagocytic index (PI)=number of ingested RBCs/100 cells. Each bar represents the mean±SEM of three separate experiments.
(§1) Antisense or scrambled control ODNs were modified to be protected from nucleases. One phosphodiester backbone at the 5-prime terminus and two at the 3-prime terminus were modified with phosphorothioate. Prediction of secondary structures of Syk mRNA (Law et al, J. Biol. Chem. 269:12310 (1994)) and ODNs were carried out with the MacDNASIS program (Hitachi Software, San Bruno, Calif.) on a Macintosh computer. Linear 17 mer Syk antisense ODN, having the sequence of 5′-[…]-3′ (SEQ ID NO:9), targets the area surrounding the translation initiation codon of Syk mRNA. Stem-loop Syk antisense ODN is a 57 mer containing sequences complementary to three different target sites, target I (the area of the translation initiation, nucleotide no. 159 to 173) , target II (451 to 463) , and target III (802 to 816) of Syk mRNA (Law et al, J. Biol. Chem. 269:12310 (1994)) (FIG. 5). The stem-loop Syk antisense ODN forms a stem and loop structure by itself and was designed to contain minimal intramolecular secondary structures in the loop domain (FIG. 6) . The sequence of the stem-loop Syk antisense ODN is 5′ - […] C-3′ (SEQ ID NO:10). Linear 17 mer control ODN has a random sequence of 5′-[…]-3′ (SEQ ID NO:11). Stem-loop 61 mer control ODN has a random sequence of 5′ -[…]- 3′ (SEQ ID NO:12) within the loop domain. The linear and stem-loop control ODNs were also modified at both the 5-prime and 3-prime termini by phosphorothioates. Preparation of liposomes: One μg each of the control scrambled phosphodiester ODNs, the linear and stem-loop Syk antisense ODNs in 50 μl of PBS were incubated with 4 μg (2 μl) of LIPOFECTAMINE™ (GIBCO BRL, Life Technologies, Inc. Gaithersburg, Md.). The ODN-liposome complexes were allowed to form at the room temperature for 45 min. Monocytes isolation and culture: Peripheral blood mononuclear cells from healthy individuals were isolated by a standard adherence procedure (Darby et al, J. Immunol. 152:5429 (1994)). Briefly, the heparinized blood was centrifuged on Ficoll-Hypaque (Lymphocyte Separation Medium; Organon Teknika, Durham, N.C.) and interface cells were washed twice in PBS. Mononuclear cells were resuspended in complete medium containing RPMI 1640 (GIBCO BRL, Life Technologies, Inc. Gaithersburg, Md.) with 10% heat-inactivated FCS and 2 mM L-glutamine. Cells were allowed to adhere at 37° C. onto tissue culture flasks precoated with FCS. After 45 to 90 min non-adherent cells were removed with extensive washing in HBSS. Cells were harvested by vigorous agitation. The yield of monocytes ranged from 2–6×10^7 cells/500 ml of blood. Monocytes were routinely more than 98% viable judged by trypan blue exclusion. Isolated monocytes were maintained in RPMI 1640 supplemented with L-glutamine (2 mM) and 10% heat-inactivated FCS at 37° C. with 5% CO2. Oligodeoxynucleotides treatment of cells. 1×10^5 Monocytes were incubated with ODN-liposome complexes containing 2 μg/ml of LIPOFECTAMINE and 0.5 μM of the linear control, 0.5 μM of the linear Syk antisense ODN or 0.1 μM of the stem-loop control, 0.1 μM of the stem-loop Syk antisense ODN in 0.3 ml of RPMI 1640 medium without FCS in a 24-well plate (Falcon; Becton Dickinson Labware, Lincoln Park, N.J.) at 37° C. for 4 h. Medium was added to a 1 ml final volume with RPMI 1640 containing 10% FCS and cells were then incubated at 37° C. for 2 days. […]

Syk mRNA = test: RT-PCR / Southern hybridization of Syk mRNA in monocytes; assay type: cell-based, human; settings: 2 days
Method: FIG. 8. Effect of Syk antisense ODNs on Syk mRNA in monocytes. Total RNA was isolated from monocytes (1×10^5 cells/ml) treated with complexes of 4 μg/ml of LIPOFECTAMINE and the ODNs (1.0 μM each of the linear control or the linear Syk antisense ODN, or 0.2 μM each of the stem-loop control or the stem-loop Syk antisense ODN) for 2 days, and cDNA was synthesized from total RNA with random hexanucleotide primers. PCR was performed with Syk cDNA as templates with two Syk primers (Syk-H and Syk-M). PCR products were analyzed by Southern hybridization and hybridized bands were visualized by chemiluminescent detection reagents.
as §1, with “PBS.” for “PBS. Mononuclear cells were resuspended in complete medium containing RPMI 1640 (GIBCO BRL, Life Technologies, Inc. Gaithersburg, Md.) with 10% heat-inactivated FCS and 2 mM L-glutamine. Cells were allowed to adhere at 37° C. onto tissue culture flasks precoated with FCS. After 45 to 90 min non-adherent cells were removed with extensive washing in HBSS. Cells were harvested by vigorous agitation. The yield of monocytes ranged from 2–6×10^7 cells/500 ml of blood. Monocytes were routinely more than 98% viable judged by trypan blue exclusion. Isolated monocytes were maintained in RPMI 1640 supplemented with L-glutamine (2 mM) and 10% heat-inactivated FCS at 37° C. with 5% CO2. Oligodeoxynucleotides treatment of cells. 1×10^5 Monocytes were incubated with ODN-liposome complexes containing 2 μg/ml of LIPOFECTAMINE and 0.5 μM of the linear control, 0.5 μM of the linear Syk antisense ODN or 0.1 μM of the stem-loop control, 0.1 μM of the stem-loop Syk antisense ODN in 0.3 ml of RPMI 1640 medium without FCS in a 24-well plate (Falcon; Becton Dickinson Labware, Lincoln Park, N.J.) at 37° C. for 4 h. Medium was added to a 1 ml final volume with RPMI 1640 containing 10% FCS and cells were then incubated at 37° C. for 2 days.”

[2] = Stability of antisense ODNs to serum nucleases; assay type: in vitro ADME; settings: for resistance to serum nucleases: modified with phosphorothioate
[3] = test system: COS-1 cells transfected with FcγRIIIA-α/γ; test: Phagocytosis of IgG-sensitized RBCs (EA) by transfected COS-1 cells; assay type: cell-based; settings: for phagocytic activity restored after washing: pretreated 400 μM
Method: (§2) FcγRIIIA isoforms, FcγRIIIA-γγ, FcγRIIIA-ζζ, were generated by cotransfection of COS-1 cells with cDNA of γ or ζ as well as cDNA of α. Transfections of cDNAs were carried out with a modified DEAE-Dextran method. Briefly, 300,000 COS-1 cells were seeded on 35 mm well plates 24 hours prior to transfection. Plates of 70 to 80% confluence were washed twice and incubated for 30 minutes with Dulbeco's Modification of Eagle's Medium (DMEM, Gibco BRL, Grand Island, N.Y.) before transfection. Four μg of plasmid DNA (0.5 μg/μl) was slowly added to 1 ml of a transfection buffer containing Nu medium (DMEM with 10% of NuSerum [Collaborative Biomedical, Two Oak Park, Bedford, Mass.], 1 mg/ml of DEAE Dextran and 100 μM chloroquine. The transfection buffer containing DNA was added to COS-1 cells with incubation for 4 hours at 37° C. Cells were then shocked with 10%. DMSO in phosphate buffered saline (PBS) for 2 minutes, washed twice with DMEM and grown in NuSerum supplemented DMEM. Cells were studied 48 hours following transfection.
(§3) Binding and pragocytosis of IgG-sensitized RSCs (EA): Sterile sheep red blood cells (10^9/ml) in calcium and magnesium-free PBS were sensitized by incubation with an equal volume of a subagglutinating titer of rabbit anti-sheep RBC antibody (Cappel Laboratories, Cochranville, Pa.). The IgG-sensitized RBCs (EA) were washed twice with PBS and resuspended to a final concentration of 10^9/ml for overlaying on transfected COS-1 cells. Cells were examined for rosetting (>10 EA per COS-1 cell) and phagocytosis as described previously (Indik et al, J. Clin. Invest. 88:A66 (1991)). For the analysis of phagocytosis, COS-1 cells bound with EA (after three washings) were subjected to a brief hypotonic shock (35 seconds) with hypotonic PBS to remove surface bound EA. The cells were then stained with Wright-Giemsa staining solutions, and phagocytosis (ingested EA) was determined by light microscopy. Results obtained were analyzed by Student's T-test.

[4] = test system: COS-1 cells transfected with FcγRIIIA-α/γ; test: Binding (rosetting) of EA by transfected COS-1 cells; assay type: cell-based
Method: as §2, §3

[5] = ODN 1 μM, LIPOFECTAMINE complexes, 2 days
[6] = ODN 0.2 μM, LIPOFECTAMINE complexes, 2 days

Compound: 5′ -ATGGAATCATCTTGGGCATTCATTCGTTCCTCAAAGAAGAATATGAA- 3′ (SEQ ID NO:12) (listed as DNA, chemistry not given here) [stem-loop control, Stem-loop 61 mer scrambled control ODN]
- effect on FcγRIIA mediated phagocytosis ([1]; ODN 0.2 μM): did not significantly affect
- effect on Syk mRNA (Syk mRNA; ODN 0.2 μM): did not reduce

Compound: 5′-GCCCAAGATGATTCCAG-3′ (SEQ ID NO:11) (phosphorothioate linkages at both termini, number not given here) [linear control]
- effect on FcγRIIA mediated phagocytosis ([1]; ODN 1 μM): did not significantly affect
- effect on Syk mRNA (Syk mRNA; ODN 1.0 μM): did not reduce

Compound: 5′-CGCTGTCAGCCATGCCG-3′ (SEQ ID NO:9) (DNA, backbone and methylation of C not given here; phosphorothioate linkages at both 5' and 3' termini, further chemistry not fully specified) [linear Syk antisense ODN, Linear 17 mer, phosphorothioate-modified termini, targets area surrounding translation initiation codon of human Syk mRNA]
- Phagocytosis reduced by (phagocytic index) [1, 5]: 49%
- phagocytic index (PI) [1, 5]: 113±12.3
- effect on Syk mRNA (Syk mRNA; ODN 1.0 μM): substantially reduced
- resistance to serum nucleases [2]: partial resistance

Compound: N#CC(C#N)=Cc1ccc(O)c(O)c1 [Tyr23, tyrphostin 23]
- PI (Phagocytic Index) ([3]; Tyr23 25 μM): 68 ± 4
- PI (Phagocytic Index) ([3]; Tyr23 50 μM): 26 ± 7
- PI (Phagocytic Index) ([3]; Tyr23 100 μM): 16 ± 6
- PI (Phagocytic Index) ([3]; Tyr23 200 μM): 1.2 ± 1
- PI (Phagocytic Index) ([3]; Tyr23 400 μM): 0
- PI (Phagocytic Index) ([3]; Tyr23 400 μM + washing (3 hr wash)): 63 ± 7
- IC50 ([3]; dose dependent, p<0.01, read-out: concentration giving 50% inhibition of phagocytosis): 25 µM
- concentration giving complete inhibition of phagocytosis ([3]; p<0.01): 200 to 400 µM
- phagocytic activity restored after washing ([3]; 3 hr wash): partially
- phagocytic activity restored after washing ([3]; overnight wash (data not shown)): completely
- viability of transfectants on inhibition of phagocytosis ([3]; pretreated with 400 μM followed by washing): not associated with reduction in viability
- effect on binding of EA [4]: did not affect
- Rosetting (% Cells) ([4]; Tyr23 25 μM): 52 ± 9 % Cells
- Rosetting (% Cells) ([4]; Tyr23 50 μM): 52 ± 8 % Cells
- Rosetting (% Cells) ([4]; Tyr23 100 μM): 49 ± 7 % Cells
- Rosetting (% Cells) ([4]; Tyr23 200 μM): 47 ± 5 % Cells
- Rosetting (% Cells) ([4]; Tyr23 400 μM): 48 ± 3 % Cells
- Rosetting (% Cells) ([4]; Tyr23 400 μM + washing): 44 ± 6 % Cells

Compound: 5′ - GGGGGGGCTGTCAGCCATGCCGTGTCTTGTCTTTGTCGCTTCTTGAGGAGCCCCCC C-3′ (SEQ ID NO:10) (antisense GGGGGGGCTGTCAGCCATGCCGTGTCTTGTCTTTGTCGCTTCTTGAGGAGCCCCCCC; DNA, backbone and methylation of C not given here; stem-loop hairpin, phosphorothioates at both termini, further chemistry not fully specified) [stem-loop Syk antisense ODN, 57 mer stem-loop ODN complementary to three target sites of human Syk mRNA, phosphorothioate-modified termini]
- reduction of the phagocytic signal compared with a mixture of three linear antisense oligonucleotides [1]: more dramatically
- reduction in phagocytosis (phagocytic index) [1, 6]: 89%
- phagocytic index (PI) [1, 6]: 24±4.2
- effect on Syk mRNA (Syk mRNA; ODN 0.2 μM): completely eliminated
- stability when complexed with liposomes ([2]; complexed with liposomes): markedly improved
- resistance to serum nucleases [2]: partial resistance
- stability in serum ([2]; with phosphorothioate modifications): exceptional stability
